Experimental data taken from PubChem BioAssay AID190 (DTP/NCI, 2004).
Several values for one entry are separate records, joined by “and”; a condition that tells them apart may be missing. Identical values can stand only once. Inconclusive results and toxic doses are left out.

Test system: AKR/Lw mice, AKR lymphoma ip, median survival T/C
Assay: NCI In Vivo Anticancer Drug Screen. Data for tumor model Lymphoma AKR (Transplanted) (intraperitoneal) in AKR/Lw mice
Details: endpoint: median survival time, higher = longer survival
Description: The antitumor activity of compounds was measured in mice bearing transplantable tumors. Survival or tumor size were measured and the results are expressed as the measurement made in the treated group (T) divided by the measurement made in the vehicle treated control group (C). The tumor model used in this assay is Lymphoma AKR (Transplanted) (intraperitoneal) in AKR/Lw mice

[1] = dose: 100.0 mg/kg/injection, schedule: Q01DX001 (ip), vehicle: Klucel (hydroxypropylcellulose) (HPC)
[2] = dose: 200.0 mg/kg/injection, schedule: Q01DX001 (ip), vehicle: Klucel (hydroxypropylcellulose) (HPC)

How did the T/C (dose: 12.5 mg/kg/injection, schedule: Q01DX009 (ip), vehicle: saline) turn out when CN(C)/N=N/c1nc[nH]c1C(N)=O was run?
Its T/C is 120 % of control.

And the T/C (dose: 25.0 mg/kg/injection, schedule: Q01DX009 (ip), vehicle: saline with Tween-80)?
The T/C was 111 % of control.

What about the T/C (dose: 25.0 mg/kg/injection, schedule: Q01DX009 (ip), vehicle: saline) of the same molecule?
Its T/C is 106 % of control and 123 % of control.

What about the T/C (dose: 25.0 mg/kg/injection, schedule: Q04DX003 (ip), vehicle: Klucel (hydroxypropylcellulose) (HPC)) of the same molecule?
The T/C was 102 % of control.

What about the T/C (dose: 37.5 mg/kg/injection, schedule: Q04DX003 (ip), vehicle: Klucel (hydroxypropylcellulose) (HPC)) of the same molecule?
Its T/C is 116 % of control.

And the T/C (dose: 50.0 mg/kg/injection, schedule: Q01DX001 (ip), vehicle: Klucel (hydroxypropylcellulose) (HPC))?
The T/C was 102 % of control.

What about the T/C (dose: 50.0 mg/kg/injection, schedule: Q01DX005 (ip), vehicle: water) of the same molecule?
The T/C was 116 % of control.

And the T/C (dose: 50.0 mg/kg/injection, schedule: Q01DX009 (ip), vehicle: saline with Tween-80)?
Its T/C is 111 % of control.

What about the T/C (dose: 50.0 mg/kg/injection, schedule: Q04DX003 (ip), vehicle: Klucel (hydroxypropylcellulose) (HPC)) of the same molecule?
The T/C was 105 % of control.

And the T/C (dose: 75.0 mg/kg/injection, schedule: Q04DX003 (ip), vehicle: Klucel (hydroxypropylcellulose) (HPC))?
The T/C was 102 % of control.

What about the T/C (dose: 90.0 mg/kg/injection, schedule: Q01DX005 (ip), vehicle: Klucel (hydroxypropylcellulose) (HPC)) of the same molecule?
The T/C was 158 % of control.

What about the T/C [1] of the same molecule?
The T/C was 90 % of control and 113 % of control.

And the T/C (dose: 100.0 mg/kg/injection, schedule: Q01DX001 (ip), vehicle: saline)?
The T/C was 105 % of control and 107 % of control.

And the T/C (dose: 100.0 mg/kg/injection, schedule: Q01DX005 (ip), vehicle: water)?
Its T/C is 120 % of control.

And the T/C (dose: 100.0 mg/kg/injection, schedule: Q01DX009 (ip), vehicle: Klucel (hydroxypropylcellulose) (HPC))?
The T/C was 100 % of control and 123 % of control.

What about the T/C (dose: 100.0 mg/kg/injection, schedule: Q01DX009 (ip), vehicle: saline with Tween-80) of the same molecule?
Its T/C is 111 % of control.

What about the T/C (dose: 100.0 mg/kg/injection, schedule: Q04DX003 (ip), vehicle: Klucel (hydroxypropylcellulose) (HPC)) of the same molecule?
Its T/C is 87 % of control.

And the T/C (dose: 135.0 mg/kg/injection, schedule: Q01DX005 (ip), vehicle: Klucel (hydroxypropylcellulose) (HPC))?
Its T/C is 186 % of control and 188 % of control.

And the T/C (dose: 150.0 mg/kg/injection, schedule: Q01DX009 (ip), vehicle: saline)?
Its T/C is 111 % of control.

What about the T/C [2] of the same molecule?
The T/C was 123 % of control.

And the T/C (dose: 200.0 mg/kg/injection, schedule: Q01DX001 (ip), vehicle: saline)?
The T/C was 107 % of control (2×) and 113 % of control.

And the T/C (dose: 200.0 mg/kg/injection, schedule: Q01DX005 (ip), vehicle: Klucel (hydroxypropylcellulose) (HPC))?
The T/C was 97 % of control.

What about the T/C (dose: 200.0 mg/kg/injection, schedule: Q01DX005 (ip), vehicle: water) of the same molecule?
The T/C was 114 % of control.

What about the T/C (dose: 200.0 mg/kg/injection, schedule: Q01DX009 (ip), vehicle: Klucel (hydroxypropylcellulose) (HPC)) of the same molecule?
Its T/C is 100 % of control and 123 % of control.

What about the T/C (dose: 200.0 mg/kg/injection, schedule: Q01DX009 (ip), vehicle: saline with Tween-80) of the same molecule?
The T/C was 117 % of control.

What about the T/C (dose: 200.0 mg/kg/injection, schedule: Q04DX003 (ip), vehicle: Klucel (hydroxypropylcellulose) (HPC)) of the same molecule?
Its T/C is 100 % of control and 121 % of control and 122 % of control.

What about the T/C (dose: 250.0 mg/kg/injection, schedule: Q04DX003 (ip), vehicle: Klucel (hydroxypropylcellulose) (HPC)) of the same molecule?
The T/C was 111 % of control.

And the T/C (dose: 300.0 mg/kg/injection, schedule: Q01DX001 (ip), vehicle: Klucel (hydroxypropylcellulose) (HPC))?
Its T/C is 120 % of control and 123 % of control.

And the T/C (dose: 350.0 mg/kg/injection, schedule: Q04DX003 (ip), vehicle: Klucel (hydroxypropylcellulose) (HPC))?
The T/C was 163 % of control.

And the T/C (dose: 500.0 mg/kg/injection, schedule: Q01DX001 (ip), vehicle: Klucel (hydroxypropylcellulose) (HPC))?
Its T/C is 107 % of control and 111 % of control.

What about the T/C (dose: 600.0 mg/kg/injection, schedule: Q01DX001 (ip), vehicle: Klucel (hydroxypropylcellulose) (HPC)) of the same molecule?
The T/C was 110 % of control and 111 % of control.

And the T/C (dose: 600.0 mg/kg/injection, schedule: Q01DX009 (ip), vehicle: Klucel (hydroxypropylcellulose) (HPC))?
Its T/C is 102 % of control.

Which T/C (dose: 0.02 mg/kg/injection, schedule: Q01DX009 (ip), vehicle: saline) does the source give for CC[C@](O)(C(=O)O)c1cc2n(c(=O)c1CO)Cc1cc3ccccc3nc1-2 here?
The T/C was 94 % of control.

And the T/C (dose: 0.05 mg/kg/injection, schedule: Q01DX009 (ip), vehicle: saline)?
Its T/C is 105 % of control.

And the T/C (dose: 0.06 mg/kg/injection, schedule: Q01DX009 (ip), vehicle: saline)?
Its T/C is 106 % of control.

And the T/C (dose: 0.1 mg/kg/injection, schedule: Q01DX009 (ip), vehicle: saline)?
The T/C was 100 % of control and 103 % of control.

And the T/C (dose: 0.12 mg/kg/injection, schedule: Q01DX009 (ip), vehicle: saline)?
Its T/C is 100 % of control and 114 % of control.

And the T/C (dose: 0.15 mg/kg/injection, schedule: Q01DX009 (ip), vehicle: saline)?
Its T/C is 106 % of control.

What about the T/C (dose: 0.35 mg/kg/injection, schedule: Q01DX009 (ip), vehicle: saline) of the same molecule?
The T/C was 106 % of control.

What about the T/C (dose: 0.37 mg/kg/injection, schedule: Q01DX009 (ip), vehicle: saline) of the same molecule?
Its T/C is 101 % of control.

And the T/C (dose: 0.4 mg/kg/injection, schedule: Q01DX009 (ip), vehicle: saline)?
The T/C was 118 % of control.

What about the T/C (dose: 0.6 mg/kg/injection, schedule: Q01DX009 (ip), vehicle: saline) of the same molecule?
Its T/C is 96 % of control.

What about the T/C (dose: 0.6 mg/kg/injection, schedule: Q04DX003 (ip), vehicle: saline) of the same molecule?
Its T/C is 88 % of control.

And the T/C (dose: 0.75 mg/kg/injection, schedule: Q01DX009 (ip), vehicle: saline)?
The T/C was 117 % of control.

What about the T/C (dose: 1.2 mg/kg/injection, schedule: Q04DX003 (ip), vehicle: saline) of the same molecule?
Its T/C is 97 % of control and 104 % of control.

What about the T/C (dose: 1.25 mg/kg/injection, schedule: Q01DX001 (ip), vehicle: saline) of the same molecule?
The T/C was 121 % of control.

What about the T/C (dose: 2.5 mg/kg/injection, schedule: Q01DX001 (ip), vehicle: saline) of the same molecule?
The T/C was 107 % of control.

What about the T/C (dose: 2.5 mg/kg/injection, schedule: Q01DX009 (ip), vehicle: saline) of the same molecule?
The T/C was 88 % of control and 113 % of control.

And the T/C (dose: 3.7 mg/kg/injection, schedule: Q04DX003 (ip), vehicle: saline)?
The T/C was 106 % of control.

And the T/C (dose: 5.0 mg/kg/injection, schedule: Q01DX001 (ip), vehicle: saline)?
The T/C was 102 % of control and 114 % of control.

And the T/C (dose: 7.5 mg/kg/injection, schedule: Q04DX003 (ip), vehicle: saline)?
Its T/C is 112 % of control.

And the T/C (dose: 12.5 mg/kg/injection, schedule: Q01DX001 (ip), vehicle: saline)?
The T/C was 120 % of control.

And the T/C (dose: 15.0 mg/kg/injection, schedule: Q04DX003 (ip), vehicle: saline)?
Its T/C is 150 % of control.

And the T/C (dose: 18.0 mg/kg/injection, schedule: Q01DX001 (ip), vehicle: saline)?
Its T/C is 95 % of control.

What about the T/C (dose: 30.0 mg/kg/injection, schedule: Q04DX003 (ip), vehicle: saline) of the same molecule?
Its T/C is 103 % of control and 115 % of control.

What about the T/C (dose: 40.0 mg/kg/injection, schedule: Q01DX001 (ip), vehicle: saline) of the same molecule?
Its T/C is 113 % of control.

And the T/C (dose: 80.0 mg/kg/injection, schedule: Q01DX001 (ip), vehicle: saline)?
Its T/C is 97 % of control.

Which results are given for COC(=O)C1CC(=O)C2(C)CCc3c(ccc4cc(OC)ccc34)C12 (configuration not stated)?
T/C (dose: 100.0 mg/kg/injection, schedule: Q01DX001 (sc), vehicle: steriod suspending solution): 109 % of control; T/C (dose: 200.0 mg/kg/injection, schedule: Q01DX001 (sc), vehicle: steriod suspending solution): 104 % of control

How did the T/C [1] turn out when CCOC(=O)C1OC12CCCCC2 (configuration not stated) was run?
Its T/C is 96 % of control.

What about the T/C [2] of the same molecule?
The T/C was 92 % of control.

And the T/C (dose: 400.0 mg/kg/injection, schedule: Q01DX001 (ip), vehicle: Klucel (hydroxypropylcellulose) (HPC))?
Its T/C is 100 % of control.
